Measured values as given in patent US20110100079A1, “METHOD FOR IMPARTING STRESS TOLERANCE TO PLANT” (priority 2007, published 2011).

Assays:
Format in all cases: in vivo
“Momotaro” tomato [1] = assay: Example 6 salt stress test (tomato), hydroponic culture; conditions: 23° C., 100 ppm, 2 weeks; for Fresh weight, relative value (untreated plot = 100), Test 5 / Fresh weight, relative value (untreated plot = 100), Test 8 / Fresh weight, relative value (untreated plot = 100), Test 6 / Fresh weight, relative value (untreated plot = 100), Test 7: hydroponic culture; for Fresh weight, relative value (untreated plot = 100), Test 5: EC 2.7 mS/cm; for Fresh weight, relative value (untreated plot = 100), Test 5 / Fresh weight, relative value (untreated plot = 100), Test 6 / Fresh weight, relative value (untreated plot = 100), Test 7 / Fresh weight, relative value (untreated plot = 100), Comparison 2: two-leaf stage; for Fresh weight, relative value (untreated plot = 100), Test 8 / Fresh weight, relative value (untreated plot = 100), Test 6: EC 3.9 mS/cm; for Fresh weight, relative value (untreated plot = 100), Test 8: five-leaf stage; for Fresh weight, relative value (untreated plot = 100), Test 7: EC 4.8 mS/cm; for Fresh weight, relative value (untreated plot = 100), Comparison 2: stress-free: hydroponic culture, EC 1.3 mS/cm
Description: (§1) (a) Comparative example conditions (stress-free optimum growth conditions) Cultivation temperature: 23° C., EC: 1.3 mS/cm (Otsuka ½A formulation) (b) Example conditions (salt stress conditions) Cultivation temperature: 23° C., EC: 2.7, 3.9, 4.8 mS/cm (cultivation with Kureha gardening soil) (2) Illuminance: 5000 Lux (fluorescent light), light/dark cycle: 16 hours/8 hours (3) Employed soil: Kureha gardening soil manufactured by Kureha Corporation (fertilizer components: N:P:K=0.4:1.9:0.6 g/kg soil) (4) Employed solution culture medium: Otsuka ½A formulation: a mixed solution of Otsuka House No. 1 (N:P:K=10:8:27) 7.5 g/10 L and Otsuka House No. 2 (N:P:K:Ca=10:0:0:23) 5 g/10 L, total nitrogen: 130 ppm, phosphoric acid: 60 ppm, potassium: 203 ppm) (5) Cultivation period: 2 weeks (6) Plant preparation: A 50-cell tray was filled with Kureha gardening soil manufactured by Kureha Corporation (fertilizer components: N:P:K=0.4:1.9:0.6 g/kg soil), and seeds of a “Momotaro” tomato or tubers of a “Danshaku” potato were sowed, thinly covered with Kureha gardening soil, and sufficiently watered to allow the seeds or the tubers to sprout. When the leaves in the 2-leaf stage or the 5-leaf stage fully unfolded, the soil on the tomato roots or the potato roots was carefully washed away with running water, and a test was performed. (7) Test chemicals: POE (20) sorbitan monolauric acid ester: Reodol TW-L120 (Kao Corporation) POE (20) sorbitan monopalmitic acid ester: Reodol TW-P120 (Kao Corporation) POE (20) sorbitan monostearic acid ester: Reodol TW-S120 (Kao Corporation) POE (20) sorbitan monooleic acid ester: Reodol TW-O120 (Kao Corporation) Sorbitan monooleic acid ester: Emasol 0-10(F) (Kao Corporation) POE (6) sorbitan monooleic acid ester: Reodol TW-O106 (Kao Corporation) Alkyl (number of carbon atoms: 10) polyglucoside: AG-10LK (Kao Corporation) Alkyl (number of carbon atoms: 12 to 14) polyglucoside: AG-124 (Kao Corporation) Sucrose fatty acid ester (number of carbon atoms: C18, HLB: 5): S-570 (Mitsubishi-Kagaku Foods Corporation) Sucrose fatty acid ester (number of carbon atoms: C18, HLB: 9): S-970 (Mitsubishi-Kagaku Foods Corporation) Sucrose fatty acid ester (number of carbon atoms: C18, HLB: 11): S-1170 (Mitsubishi-Kagaku Foods Corporation) Sucrose fatty acid ester (number of carbon atoms: C18, HLB: 15): 5-1570 (Mitsubishi-Kagaku Foods Corporation) Sucrose fatty acid ester (number of carbon atoms: C16, HLB: 15): P-1570 (Mitsubishi-Kagaku Foods Corporation) Sucrose fatty acid ester (number of carbon atoms: C18:1, HLB: 15): O-1570 (Mitsubishi-Kagaku Foods Corporation) (8) Amount of treatment solution applied: 10 ml/specimen for leaf spraying, 250 ml/specimen for hydroponic culture (treatment of underground portion) (9) 50 ml/specimen for soil culture (treatment of underground portion)
The environmental conditions in a climatic chamber were controlled so as to have a temperature of 23° C., an illuminance by a fluorescent light of 5000 Lux, and a daily light-dark cycle of a 16-hour light period and an 8-hour dark period. Tomatoes as prepared above were planted in 250 ml polyethylene bottles each filled with a solution culture medium having a different EC value. Different EC values were achieved by taking a ½ Otsuka A formulation having an EC value of 1.3 as a standard and suitably increasing the fertilizer concentration through proportional counting. A treatment solution containing a compound of Table 1 in a specific concentration (the remainder was water) was prepared and sprayed onto the leaves or applied to the underground portion. In each test plot, 10 specimens were prepared for replication, and the average of the fresh weight of each specimen 2 weeks after the beginning of the test was calculated and expressed as a relative value where “100” indicates a result identical to that of the untreated plot of a given EC condition. […]

potato = assay: Example 9 drying stress test (potato), soil culture; conditions: 23° C., 100 ppm, 2 weeks; for Fresh weight, relative value (untreated plot = 100), Test 1 / Fresh weight, relative value (untreated plot = 100), Test 4 / Fresh weight, relative value (untreated plot = 100), Test 2 / Fresh weight, relative value (untreated plot = 100), Test 3: potato soil culture; for Fresh weight, relative value (untreated plot = 100), Test 1: EC 1, pF 2.8, two-leaf stage; for Fresh weight, relative value (untreated plot = 100), Test 4: EC 1, pF 3.5, five-leaf stage; for Fresh weight, relative value (untreated plot = 100), Test 2: EC 1, pF 3.5, two-leaf stage; for Fresh weight, relative value (untreated plot = 100), Test 3: EC 1, pF 4.1, two-leaf stage; for Fresh weight, relative value (untreated plot = 100), Comparison 1: stress-free: potato soil culture, EC 1, pF 1.7, two-leaf stage
Description: The environmental conditions in a climatic chamber were controlled so as to have a temperature of 23° C., an illuminance by a fluorescent light of 5000 Lux, and a daily light-dark cycle of a 16-hour light period and an 8-hour dark period. Potatoes as prepared above were transplanted in size-5 (15 cm) pots. During the test period, the pF value was controlled by adding a suitable amount of tap water once a day so as to attain a specific drying stress value. A treatment solution containing a compound of Table 5 in a specific concentration (the remainder was water) was prepared and sprayed onto the leaves or applied to the underground portions. […] A comparative example was constructed to reflect the drying stress-free optimum cultivation conditions to investigate the plant energizing ability. […] Moreover, when the products of the present invention and the comparative products were compared, the stress tolerance imparting ability of the products of the present invention was higher in respective drying stress conditions.

“Momotaro” tomato [2] = assay: Example 6 salt stress test (tomato), soil culture; conditions: 23° C., 100 ppm, 2 weeks; for Fresh weight, relative value (untreated plot = 100), Test 1 / Fresh weight, relative value (untreated plot = 100), Test 4 / Fresh weight, relative value (untreated plot = 100), Test 2 / Fresh weight, relative value (untreated plot = 100), Test 3: soil culture; for Fresh weight, relative value (untreated plot = 100), Test 1: EC 1.3 mS/cm; for Fresh weight, relative value (untreated plot = 100), Test 1 / Fresh weight, relative value (untreated plot = 100), Test 2 / Fresh weight, relative value (untreated plot = 100), Test 3 / Fresh weight, relative value (untreated plot = 100), Comparison 1: pF 1.7, two-leaf stage; for Fresh weight, relative value (untreated plot = 100), Test 4 / Fresh weight, relative value (untreated plot = 100), Test 2: EC 2 mS/cm; for Fresh weight, relative value (untreated plot = 100), Test 4: pF 1.7, five-leaf stage; for Fresh weight, relative value (untreated plot = 100), Test 3: EC 3 mS/cm; for Fresh weight, relative value (untreated plot = 100), Comparison 1: stress-free: soil culture, EC 1 mS/cm
Description: (1) A. soil culture (a) Comparative example conditions (stress-free optimum growth conditions) Cultivation temperature: 23° C., EC: 1.0 mS/cm (cultivation with Kureha gardening soil), pF value: 1.7 (capillaries in a saturated state) (b) Example conditions (salt stress conditions) Cultivation temperature: 23° C., EC: 1.3, 2.0, 3.0 mS/cm (cultivation with Kureha gardening soil), pF value: 1.7 (capillaries in a saturated state)
as §1
The environmental conditions in a climatic chamber were controlled so as to have a temperature of 23° C., an illuminance by a fluorescent light of 5000 Lux, and a daily light-dark cycle of a 16-hour light period and an 8-hour dark period. Tomatoes as prepared above were transplanted in size-3 (9 cm) pots. During the test period, the EC value was controlled by adding a suitable amount of a 10% NaCl solution once a day so as to attain a specific salt stress value. A treatment solution containing a compound of Table 1 in a specific concentration (the remainder was water) was prepared and sprayed onto the leaves or applied to the underground portions. […]

Substance | Fresh weight, relative value (untreated plot = 100), Test 5 (“Momotaro” tomato [1]; leaf) | Fresh weight, relative value (untreated plot = 100), Test 8 (“Momotaro” tomato [1]; leaf) | Fresh weight, relative value (untreated plot = 100), Test 6 (“Momotaro” tomato [1]; leaf) | Fresh weight, relative value (untreated plot = 100), Test 7 (“Momotaro” tomato [1]; leaf) | Fresh weight, relative value (untreated plot = 100), Comparison 2 (“Momotaro” tomato [1]; leaf) | Fresh weight, relative value (untreated plot = 100), Test 1 (potato; leaf) | Fresh weight, relative value (untreated plot = 100), Test 4 (potato; leaf) | Fresh weight, relative value (untreated plot = 100), Test 2 (potato; leaf) | Fresh weight, relative value (untreated plot = 100), Test 3 (potato; leaf) | Fresh weight, relative value (untreated plot = 100), Comparison 1 (potato; leaf) | Fresh weight, relative value (untreated plot = 100), Test 1 (“Momotaro” tomato [2]; leaf) | Fresh weight, relative value (untreated plot = 100), Test 4 (“Momotaro” tomato [2]; leaf) | Fresh weight, relative value (untreated plot = 100), Test 2 (“Momotaro” tomato [2]; leaf) | Fresh weight, relative value (untreated plot = 100), Test 3 (“Momotaro” tomato [2]; leaf) | Fresh weight, relative value (untreated plot = 100), Comparison 1 (“Momotaro” tomato [2]; leaf) | also measured
POE (20) sorbitan monolauric acid ester [Product of present invention 12] | 136 | 147 | 160 | 135 | 101 | 128 | 145 | 143 | 129 | 101 | 131 | 146 | 155 | 133 | 101 | 
Sucrose fatty acid ester (C18, HLB = 15) [Product of present invention 20] | 121 | 133 | 138 | 125 | 103 | 118 | 128 | 135 | 118 | 102 | 120 | 129 | 134 | 119 |  | 
Alkyl (C10) polyglycoside [Product of present invention 15] | 125 | 138 | 145 | 125 | 101 | 121 | 134 | 142 | 121 | 102 | 121 | 134 | 142 | 121 | 101 | 
POE (20) sorbitan monooleic acid ester [Product of present invention 1] |  |  |  |  |  |  |  |  |  |  |  |  |  |  |  | Fresh weight, relative value (untreated plot = 100), Test 5 (“Momotaro” tomato [1]; underground portion): 145; Fresh weight, relative value (untreated plot = 100), Test 8 (“Momotaro” tomato [1]; underground portion): 160; Fresh weight, relative value (untreated plot = 100), Test 6 (“Momotaro” tomato [1]; underground portion): 190; Fresh weight, relative value (untreated plot = 100), Test 7 (“Momotaro” tomato [1]; underground portion): 145; Fresh weight, relative value (untreated plot = 100), Comparison 2 (“Momotaro” tomato [1]; underground portion): 104; Fresh weight, relative value (untreated plot = 100), Test 1 (potato; underground portion): 133; Fresh weight, relative value (untreated plot = 100), Test 4 (potato; underground portion): 156; Fresh weight, relative value (untreated plot = 100), Test 2 (potato; underground portion): 185; Fresh weight, relative value (untreated plot = 100), Test 3 (potato; underground portion): 140; Fresh weight, relative value (untreated plot = 100), Comparison 1 (potato; underground portion): 102; Fresh weight, relative value (untreated plot = 100), Test 1 (“Momotaro” tomato [2]; underground portion): 142; Fresh weight, relative value (untreated plot = 100), Test 4 (“Momotaro” tomato [2]; underground portion): 156; Fresh weight, relative value (untreated plot = 100), Test 2 (“Momotaro” tomato [2]; underground portion): 185; Fresh weight, relative value (untreated plot = 100), Test 3 (“Momotaro” tomato [2]; underground portion): 140; Fresh weight, relative value (untreated plot = 100), Comparison 1 (“Momotaro” tomato [2]; underground portion): 103
